Source: US20070155012A1, “Method for production of neurons from cells of a cell line” (priority 2003, published 2007)

Tested on: NT2 cells
Test: Response of NT2 cells to growth factors: count of viable spherical cells after three days of culture
Assay type: cell-based, human
Details: growth factor present exclusively in growth medium NS; viable cells counted after three days of culture into spheres; FIG. 3
Procedure: This step permits to obtain the first passing over into spheres of NT2 cells that are then cultured, preferably at 100000 cells/ml in 75 ml flasks of the FALCON™ (trademark registered by the Falcon company) type having filtering plugs containing 15 ml of growth medium (NS) not containing bovine serum, defined by the following composition: DMEM/F12 (50%/50%), 2 mM glutamine, N2 complement, 0.6% glucose, 20 μg/ml insulin, to which are added extemporaneously growth factors EGF at 20 ng/ml, bFGF at 10 ng/ml, 2 μg/ml heparin or growth factor LIF at 10 ng/ml or 20 n/ml.
The way NT2 cells respond to growth factors […] and bFGF was studied by counting viable spherical cells obtained after three days of culture in the presence either of the one or the other, either of the one and the other of them then dissociated.
Results represented in FIG. 3 show the number of viable cells after three days, whereas the horizontal line indicates culture density.
Although it was found, unexpectedly, that NT2 cells were capable of forming spheres in the absence of growth factors, they proliferate differently under the action of the latter, and according to the type of growth factors added to the growth medium NS.

EGF: epidermal growth factor, added to growth medium at 20 ng/ml
rate of proliferation of NT2 cells multiplied by (with respect to cultures without growth factor): 1.5

bFGF: basic fibroblast growth factor, added to growth medium at 10 ng/ml
rate of proliferation of NT2 cells multiplied by (with respect to cultures without growth factor): 2.2
